{
  "source": "patent US20110077279A1",
  "about": "“ANGIOTENSIN II RECEPTOR ANTAGONISTS” (priority 2008, published 2011)",
  "key": {"[1]": {"test_system": "conscious spontaneously hypertensive rats (SHRs)", "test": "Assay for antihypertensive activity (in vivo), telemetry", "set-up": "species or system rat", "procedure": "The ability of the compounds of the invention to decrease blood pressure was evaluated in conscious spontaneously hypertensive rats (SHRs). SHRs (250-300 g) received a single oral dose of tested compounds. Systolic blood pressure (SBP) and heart rate were monitored by telemetry for 24 hrs after dosing. SBP was evaluated before (baseline) and at different time points (i.e. 2-6, 12, 21-24 hrs) following treatment by oral administration of the compounds. The data were processed both as the absolute value or as a delta between the absolute value and its own baseline.\nThe Dataquest IV telemetry system (Data Sciences International) was used for measurement of systolic pressure, diastolic pressure, mean arterial pressure, heart rate, and motor activity. The monitoring system consists of a transmitter (radio frequency transducer model TA11PA), receiver panel, consolidation matrix, and personal computer with accompanying software. Before the device was implanted, calibrations were verified to be accurate within ±3 mmHg. Rats were anesthetized with ketamine/xylazine/acepromazine, and the flexible catheter of the transmitter was surgically secured in the abdominal aorta just below the renal arteries. The transmitter was sutured subcutaneously. Rats were housed in individual cages after the operation. Each cage was placed over the receiver panel that was connected to the personal computer for data acquisition. The rats were unrestrained and free to move within their cages. Hemodynamic data were sampled every 2 minutes for 10 seconds.\nCompared to Compound A (reference compound), the compounds of the invention provided BP lowering with extended peak effect and duration of action (see Data Table 2)."}, "[2]": {"test_system": "isolated rabbit thoracic aorta preparations", "test": "Assay on vascular tone: vasorelaxation of noradrenaline-precontracted aortic rings", "type": "cell-based", "settings": "Oryctolagus cuniculus; rabbit aortic rings precontracted with noradrenaline 1 μM, functional endothelium; read-out: EC50 in vessel relaxation assay", "procedure": "The ability of the compounds of the invention to induce vasorelaxation in comparison to native angiotensin II receptor blockers (ARBs), was tested in vitro in isolated rabbit thoracic aorta preparations (Wanstall J. C. et al., Br. J. Pharmacol., 134:463-472, 2001). Male New Zealand rabbits were anaesthetized with thiopental-Na (50 mg/kg, iv), sacrificed by exsanguinations and then the thorax was opened and the aorta dissected. Aortic ring preparations (4 mm in length) were set up in physiological salt solution (PSS) at 37° C. in small organ chambers (5 ml). The composition of PSS was (mM): NaCl 130, NaHCO3 14.9, KH2PO4 1.2, MgSO4 1.2, HEPES 10, […] (95% O2/5% CO2; pH 7.4). Each ring was mounted under 2 g passive tension. Isometric tension was recorded with a Grass transducer (Grass FT03) attached to a BIOPAC MP150 System. Preparations were allowed to equilibrate for 1 h, and then contracted submaximally with noradrenaline (NA, 1 μM) and, when the contraction was stable, acetylcholine (ACh, 10 μM) was added. A relaxant response to ACh indicated the presence of a functional endothelium. […] When a stable precontraction was reached, a cumulative concentration-response curve to either of the vasorelaxant agents was obtained in the presence of a functional endothelium. Each arterial ring was exposed to only one combination of inhibitor and vasorelaxant. Moreover, the effect of the soluble guanylyl cyclase inhibitor ODQ (1-H-(1,2,4)-oxadiazol(4,3-a)quinoxalin-1-one) on vasorelaxation elicited by the compounds was examined preincubating the aortic rings with ODQ (10 μM) for 20 min.\nResponses to relaxing agents are expressed as a percentage of residual contraction and plotted against concentration of test compound. EC50 values (where EC50 is the concentration producing 50% of the maximum relaxation to the test compound) were interpolated from these plots.\nDuring the experimental period, the plateau obtained with NA was stable without significant spontaneous loss of contraction in the aortic rings. […]"}, "[3]": {"settings": "2-6 h after single oral dose, 10 mpk"}, "[4]": {"settings": "21-24 h after single oral dose, 10 mpk"}, "[5]": {"settings": "12 h after single oral dose, 10 mpk"}},
  "data": [
    {"smiles": "CCCCc1nc(Cl)c(C(=O)OCCOCCO[N+](=O)[O-])n1Cc1ccc(-c2ccccc2-c2nn[nH]n2)cc1", "note": "[A, reference compound]", "values": [
      {"measurement": "Δ SBP in SHR", "setting": "[1]; [3]", "value": "−15", "unit": "mmHg"},
      {"measurement": "Δ SBP in SHR", "setting": "[1]; [4]", "value": "−8", "unit": "mmHg"},
      {"measurement": "Δ SBP in SHR", "setting": "[1]; [5]", "value": "−12", "unit": "mmHg"}
    ]},
    {"smiles": "CCCCc1nc(Cl)c(C(=O)OC(C)OC(=O)O[C@@H]2CO[C@H]3[C@@H]2OC[C@H]3OC(=O)CCCC(CO[N+](=O)[O-])O[N+](=O)[O-])n1Cc1ccc(-c2ccccc2-c2nnn[nH]2)cc1", "note": "(stereo partly drawn) [Example 1, 1-(((3R,3aR,6R,6aR)-6-(5,6-bis(nitrooxy)hexanoyloxy)hexahydrofuro[3,2-b]furan-3-yloxy)carbonyloxy)ethyl 1-((2′-(1H-tetrazol-5-yl)biphenyl-4-yl)methyl)-2-butyl-4-chloro-1H-imidazole-5-carboxylate]", "values": [
      {"measurement": "EC50", "setting": "[2]", "value": 6200, "unit": "nM"},
      {"measurement": "Δ SBP in SHR", "setting": "[1]; [3]", "value": "−19", "unit": "mmHg"},
      {"measurement": "Δ SBP in SHR", "setting": "[1]; [4]", "value": "−11", "unit": "mmHg"},
      {"measurement": "Δ SBP in SHR", "setting": "[1]; [5]", "value": "−14", "unit": "mmHg"}
    ]},
    {"smiles": "CCOc1nc2cccc(C(=O)OC(C)(C)OC(=O)O[C@@H]3CO[C@H]4[C@@H]3OC[C@H]4OC(=O)CCCC(CO[N+](=O)[O-])O[N+](=O)[O-])c2n1Cc1ccc(-c2ccccc2-c2nnn[nH]2)cc1", "note": "(stereo partly drawn) [Example 2, 2-(((3R,3aR,6R,6aR)-6-(5,6-bis(nitrooxy)hexanoyloxy)hexahydrofuro[3,2-b]furan-3-yloxy)carbonyloxy)propan-2-yl 1-((2′-(1H-tetrazol-5-yl)biphenyl-4-yl)methyl)-2-ethoxy-1H-benzo[d]imidazole-7-carboxylate]", "values": [
      {"measurement": "EC50", "setting": "[2]", "value": 270, "unit": "nM"},
      {"measurement": "Δ SBP in SHR", "setting": "[1]; 2-6 h after single oral dose, 3 mpk", "value": "−37", "unit": "mmHg"},
      {"measurement": "Δ SBP in SHR", "setting": "[1]; 21-24 h after single oral dose, 3 mpk", "value": "−33", "unit": "mmHg"},
      {"measurement": "Δ SBP in SHR", "setting": "[1]; 12 h after single oral dose, 3 mpk", "value": "−34", "unit": "mmHg"}
    ]},
    {"smiles": "CCOc1nc2cccc(C(=O)OC(C)(C)OC(=O)O[C@@H]3CO[C@H]4[C@@H]3OC[C@H]4OC(=O)OCCC(C)(C)CC(CO[N+](=O)[O-])O[N+](=O)[O-])c2n1Cc1ccc(-c2ccccc2-c2nn[nH]n2)cc1", "note": "(stereo partly drawn) [Example 3, 2-(((3R,3aR,6R,6aR)-6-((3,3-dimethyl-5,6-bis(nitrooxy)hexyloxy)carbonyloxy)hexahydrofuro[3,2-b]furan-3-yloxy)carbonyloxy)propan-2-yl 1-((2′-(2H-tetrazol-5-yl)biphenyl-4-yl)methyl)-2-ethoxy-1H-benzo[d]imidazole-7-carboxylate]", "values": [
      {"measurement": "EC50", "setting": "[2]", "value": 180, "unit": "nM"}
    ]}
  ]
}
